Experimental data reported in patent US10633337B2, “Crystal forms of a 9-aminomethyl substituted tetracycline compound and a preparation method thereof” (KBP Biosciences Co., Ltd., priority 2016, dated 2020).

How the values were obtained:
Format in all cases: physicochemical
[1] = Assay 1: stability (influencing factor tests: high temperature, high humidity, illumination) of amorphous form and crystal forms I, II, VII; content and purity by HPLC; details: for stability (conclusion in words): high temperature, high humidity and illumination
Method: Assay 1: Stability for Amorphous Form and Crystal Forms of the Present Compound
Tested sample: amorphous form, crystal form I, crystal form II, and crystal form VII of the compound represented by formula (1) were prepared according to Examples;
(§1) Test Conditions for Investigating the Influencing Factors:
(§2) High temperature tests: amorphous form, crystal form I, crystal form II, and crystal form VII of the compound represented by formula (1) were laid on a dry and clean watch glass, and kept at 60° C.±5° C. for 14 days. Samples were taken respectively on Day 7 and Day 14. The content and the purity of the compound represented by formula (1) were measured, and compared with those of the sample taken on Day 0.
as §2, with “humidity test:” for “temperature tests:”, “25° C.±2° C., RH75%±5%, 40° C.±2° C., RH75%±5%” for “60° C.±5° C.”
as §2, with “Illumination test:” for “High temperature tests:”, “an illuminance of 4500 Lx±500 Lx in an illumination box” for “60° C.±5° C.”
(§3) Content: it was measured by using an external standard method in accordance with the High Performance Liquid Chromatography in Chinese Pharmacopoeia, Appendix V D, Edition 2010.
(§4) Purity: it was measured by using an area normalization method in accordance with the High Performance Liquid Chromatography in Chinese Pharmacopoeia, Appendix V D, Edition 2010.

[2] = Assay 2: stability (influencing factor tests) of crystal form II and crystal form IV; content by HPLC; details: for stability (conclusion in words): high temperature, high humidity and illumination
Method: Assay 2: Stability for Crystal Form II and Crystal Form IV of the Present Compound
Tested sample: crystal form II and crystal form IV of the compound represented by formula (1) were prepared according to Examples;
as §1
as §2, with “tests:” for “tests: amorphous form,”, “II” for “I, crystal form II,”, “IV” for “VII”, “15” for “14”, “5” for “7”, “15.” for “14.”
(§5) High humidity test: crystal form II and crystal form IV of the compound represented by formula (1) were laid on a dry and clean watch glass, and kept at 25° C.±2° C., RH92.5%±5%, 25° C.±2° C., RH75%±5%, 40° C.±2° C., RH75%±5% for 15 days. Samples were taken respectively on Day 5 and Day 15. The content and the purity of the compound represented by formula (1) were measured, and compared with those of the sample taken on Day 0.
as §5, with “Illumination” for “High humidity”, “an illuminance of 4500 Lx±500 Lx in an illumination box” for “25° C.±2° C., RH92.5%±5%, 25° C.±2° C., RH75%±5%, 40° C.±2° C., RH75%±5%”
as §3, §4

[3] = Investigation of the stability of crystal form III at high humidity
Method: It is also found in the study that not all of crystal forms I, II, III, IV, V, VI, VII and VIII of the compound represented by formula (1) have better stability than the amorphous form. Specifically, in the investigation of the stability of crystal form III, the content of the compound is reduced by about 10% after being placed in a high humidity condition of 40° C./75%±5% RH for 14 days.
The data for investigating the stability was mentioned as above.

[4] = Day 0 (start of stability test)
[5] = High temperature 60° C., Day 14
[6] = Illumination 45001x ± 5001x, Day 14

Row | Content ([1]; 25° C./75% ± 5% RH, Day 7) [%] | Purity ([1]; 25° C./75% ± 5% RH, Day 7) [%] | Content ([1]; 25° C./75% ± 5% RH, Day 14) [%] | Purity ([1]; 25° C./75% ± 5% RH, Day 14) [%] | Content ([1]; 40° C./75% ± 5% RH, Day 7) [%] | Purity ([1]; 40° C./75% ± 5% RH, Day 7) [%] | Content ([1]; 40° C./75% ± 5% RH, Day 14) [%] | Purity ([1]; 40° C./75% ± 5% RH, Day 14) [%] | Content [1, 4] [%] | Purity [1, 4] [%] | Content ([1]; High temperature 60° C., Day 7) [%] | Purity ([1]; High temperature 60° C., Day 7) [%] | Content [1, 5] [%] | Purity [1, 5] [%] | Content [1, 6] [%] | Purity [1, 6] [%] | stability (conclusion in words) [1] | Content ([2]; 25° C./RH 75% ± 5%, Day 15) [%] | Content ([2]; 25° C./RH 92.5% ± 5%, Day 15) [%] | Content ([2]; 40° C./RH 75% ± 5%, Day 15) [%] | SMILES | other results
1 |  |  |  |  |  |  |  |  |  |  |  |  |  |  |  |  |  | 93.1 | 90.3 | 74.6 | CN(C)c1cc(CN2CC3CC3C2)c(O)c2c1C[C@H]1C[C@H]3[C@H](N(C)C)C(O)=C(C(N)=O)C(=O)[C@@]3(O)C(O)=C1C2=O (single isomer, unassigned) [Crystal form IV] | Content ([2]; 60° C., Day 15): 88.6%; Content ([2]; 4500 Lx ± 500 Lx, Day 15): 74.6%; Content [2, 4]: 97.0%; reduction of content ([2]; high temperature of 60° C. for 15 days): about 10%; stability (conclusion in words) [2]: changed very much; reduction of content ([2]; illumination 4500 Lx±500 Lx for 15 days): 23.1%; stability compared with amorphous form ([2]; illumination condition or high temperature condition): worse stability than the amorphous form
2 | 96.1 | 97.1 | 95.8 | 97.2 | 94.6 | 96.4 | 94.5 | 95.7 | 95.8 | 97.4 | 95.2 | 96.8 | 93.6 | 96.2 | 95.7 | 96.6 | relatively high stability |  |  |  | CN(C)c1cc(CN2CC3CC3C2)c(O)c2c1C[C@H]1C[C@H]3[C@H](N(C)C)C(O)=C(C(N)=O)C(=O)[C@@]3(O)C(O)=C1C2=O (stereo partly drawn) [Crystal form VII, (4S,4aS,5aR,12aS)-9-(3-azabicyclo[3.1.0]hexan-3-ylmethyl)-4,7-bis(dimethylamino)-3,10,12,12a-tetrahydroxy-1,11-dioxo-1,4,4a,5,5a,6,11,12a-octahydrotetracene-2-carboxamide] | 

The remaining lines, values behind:

Row | SMILES | Content ([1]; 25° C./75% ± 5% RH, Day 7) [%] | Purity ([1]; 25° C./75% ± 5% RH, Day 7) [%] | Content ([1]; 25° C./75% ± 5% RH, Day 14) [%] | Purity ([1]; 25° C./75% ± 5% RH, Day 14) [%] | Content ([1]; 40° C./75% ± 5% RH, Day 7) [%] | Purity ([1]; 40° C./75% ± 5% RH, Day 7) [%] | Content ([1]; 40° C./75% ± 5% RH, Day 14) [%] | Purity ([1]; 40° C./75% ± 5% RH, Day 14) [%] | Content [1, 4] [%] | Purity [1, 4] [%] | Content ([1]; High temperature 60° C., Day 7) [%] | Purity ([1]; High temperature 60° C., Day 7) [%] | Content [1, 5] [%] | Purity [1, 5] [%] | Content [1, 6] [%] | Purity [1, 6] [%] | stability (conclusion in words) [1] | Content ([2]; 25° C./RH 75% ± 5%, Day 15) [%] | Content ([2]; 25° C./RH 92.5% ± 5%, Day 15) [%] | Content ([2]; 40° C./RH 75% ± 5%, Day 15) [%] | other results
3 | CN(C)c1cc(CN2CC3CC3C2)c(O)c2c1C[C@H]1C[C@H]3[C@H](N(C)C)C(O)=C(C(N)=O)C(=O)[C@@]3(O)C(O)=C1C2=O (single isomer, unassigned) [Crystal form II] | 95.9 | 96.3 | 96.1 | 96.2 | 96.5 | 96.2 | 96.1 | 96.1 | 94.5 | 96.4 | 95.8 | 96.1 | 96.0 | 96.0 | 96.1 | 96.2 | relatively high stability | 98.3 | 96.7 | 98.0 | Content ([2]; 60° C., Day 15): 97.0%; Content ([2]; 4500 Lx ± 500 Lx, Day 15): 97.8%; Content [2, 4]: 98.4%; stability (conclusion in words) [2]: higher stability than crystal form IV
4 | CN(C)c1cc(CN2CC3CC3C2)c(O)c2c1C[C@H]1C[C@H]3[C@H](N(C)C)C(O)=C(C(N)=O)C(=O)[C@@]3(O)C(O)=C1C2=O (stereo partly drawn) [Amorphous form, (4S,4aS,5aR,12aS)-9-(3-azabicyclo[3.1.0]hexan-3-ylmethyl)-4,7-bis(dimethylamino)-3,10,12,12a-tetrahydroxy-1,11-dioxo-1,4,4a,5,5a,6,11,12a-octahydrotetracene-2-carboxamide] | 98.7 | 97.1 | 93.3 | 96.7 | 94.7 | 94.9 | 89.6 | 92.9 | 97.1 | 98.0 | 94.5 | 95.8 | 90.5 | 94.3 | 85.0 | 92.9 | unstable |  |  |  | reduction of content ([1]; after 14 days at a high temperature of 60° C.): 6.6%; reduction of content ([1]; after 14 days at high humidity 40° C./75%±5% RH): 7.5%; reduction of content ([1]; after 14 days under illumination of 4500 lx±500 lx): 12.1%
5 | CN(C)c1cc(CN2CC3CC3C2)c(O)c2c1C[C@H]1C[C@H]3[C@H](N(C)C)C(O)=C(C(N)=O)C(=O)[C@@]3(O)C(O)=C1C2=O (stereo partly drawn) [Crystal form I, (4S,4aS,5aR,12aS)-9-(3-azabicyclo[3.1.0]hexan-3-ylmethyl)-4,7-bis(dimethylamino)-3,10,12,12a-tetrahydroxy-1,11-dioxo-1,4,4a,5,5a,6,11,12a-octahydrotetracene-2-carboxamide] | 97.2 | 98.1 | 98.2 | 98.1 | 97.4 | 98.0 | 97.5 | 97.8 | 97.0 | 98.2 | 97.7 | 97.9 | 97.3 | 97.7 | 97.8 | 98.1 | relatively high stability |  |  |  | 
6 | CN(C)c1cc(CN2CC3CC3C2)c(O)c2c1C[C@H]1C[C@H]3[C@H](N(C)C)C(O)=C(C(N)=O)C(=O)[C@@]3(O)C(O)=C1C2=O (stereo partly drawn) [Crystal form III, (4S,4aS,5aR,12aS)-9-(3-azabicyclo[3.1.0]hexan-3-ylmethyl)-4,7-bis(dimethylamino)-3,10,12,12a-tetrahydroxy-1,11-dioxo-1,4,4a,5,5a,6,11,12a-octahydrotetracene-2-carboxamide] |  |  |  |  |  |  |  |  |  |  |  |  |  |  |  |  |  |  |  |  | reduction of content ([3]; high humidity 40° C./75%±5% RH for 14 days): about 10%; stability compared with amorphous form ([3]; high humidity condition): worse stability than the amorphous form
